From the NIST ThermoML archive (doi:10.1021/je900164a)

Experiment: xn = mol fraction of the nth substance listed
Conditions: 101 kPa, Liquid, Vibrating tube method

CNC(=O)NC [1,3-dimethylurea] + O
Conditions | mass density [kg/m3]
274.15 K, x1 = 0.000898 | 1000.36
274.15 K, x1 = 0.0018 | 1000.83
274.15 K, x1 = 0.00448 | 1002.26
274.15 K, x1 = 0.00893 | 1004.68
274.15 K, x1 = 0.01771 | 1009.58
274.15 K, x1 = 0.02461 | 1013.5
274.15 K, x1 = 0.03141 | 1017.27
274.15 K, x1 = 0.03815 | 1021.02
274.15 K, x1 = 0.04471 | 1024.43
274.15 K, x1 = 0.05126 | 1027.8
274.15 K, x1 = 0.06722 | 1035.64
274.15 K, x1 = 0.08246 | 1042.41
275.15 K, x1 = 0.000898 | 1000.39
275.15 K, x1 = 0.0018 | 1000.85
275.15 K, x1 = 0.00448 | 1002.25
275.15 K, x1 = 0.00893 | 1004.65
275.15 K, x1 = 0.01771 | 1009.48
275.15 K, x1 = 0.02461 | 1013.35
275.15 K, x1 = 0.03141 | 1017.12
275.15 K, x1 = 0.03815 | 1020.73
275.15 K, x1 = 0.04471 | 1024.13
275.15 K, x1 = 0.05126 | 1027.45
275.15 K, x1 = 0.06722 | 1035.23
275.15 K, x1 = 0.08246 | 1042.02
276.15 K, x1 = 0.000898 | 1000.4
276.15 K, x1 = 0.0018 | 1000.86
276.15 K, x1 = 0.00448 | 1002.26
276.15 K, x1 = 0.00893 | 1004.64
276.15 K, x1 = 0.01771 | 1009.4
276.15 K, x1 = 0.02461 | 1013.24
276.15 K, x1 = 0.03141 | 1016.94
276.15 K, x1 = 0.03815 | 1020.54
276.15 K, x1 = 0.04471 | 1023.92
276.15 K, x1 = 0.05126 | 1027.2
276.15 K, x1 = 0.06722 | 1034.87
276.15 K, x1 = 0.08246 | 1041.67
277.15 K, x1 = 0.000898 | 1000.41
277.15 K, x1 = 0.0018 | 1000.87
277.15 K, x1 = 0.00448 | 1002.27
277.15 K, x1 = 0.00893 | 1004.63
277.15 K, x1 = 0.01771 | 1009.35
277.15 K, x1 = 0.02461 | 1013.14
277.15 K, x1 = 0.03141 | 1016.8
277.15 K, x1 = 0.03815 | 1020.37
277.15 K, x1 = 0.04471 | 1023.74
277.15 K, x1 = 0.05126 | 1027.03
277.15 K, x1 = 0.06722 | 1034.56
277.15 K, x1 = 0.08246 | 1041.26
278.15 K, x1 = 0.000898 | 1000.41
278.15 K, x1 = 0.0018 | 1000.86
278.15 K, x1 = 0.00448 | 1002.23
278.15 K, x1 = 0.00893 | 1004.56
278.15 K, x1 = 0.01771 | 1009.26
278.15 K, x1 = 0.02461 | 1013.05
278.15 K, x1 = 0.03141 | 1016.7
278.15 K, x1 = 0.03815 | 1020.22
278.15 K, x1 = 0.04471 | 1023.58
278.15 K, x1 = 0.05126 | 1026.87
278.15 K, x1 = 0.06722 | 1034.3
278.15 K, x1 = 0.08246 | 1040.88
278.15 K, x1 = 0.09755 | 1046.81
279.18 K, x1 = 0.000898 | 1000.38
279.18 K, x1 = 0.0018 | 1000.83
279.18 K, x1 = 0.00448 | 1002.19
279.18 K, x1 = 0.00893 | 1004.5
279.18 K, x1 = 0.01771 | 1009.16
279.18 K, x1 = 0.02461 | 1012.89
279.18 K, x1 = 0.03141 | 1016.44
279.18 K, x1 = 0.03815 | 1019.9
279.18 K, x1 = 0.04471 | 1023.29
279.18 K, x1 = 0.05126 | 1026.57
279.18 K, x1 = 0.06722 | 1033.9
279.18 K, x1 = 0.08246 | 1040.45
279.18 K, x1 = 0.09755 | 1046.32
280.15 K, x1 = 0.000898 | 1000.35
280.15 K, x1 = 0.0018 | 1000.78
280.15 K, x1 = 0.00448 | 1002.14
280.15 K, x1 = 0.00893 | 1004.44
280.15 K, x1 = 0.01771 | 1009.05
280.15 K, x1 = 0.02461 | 1012.74
280.15 K, x1 = 0.03141 | 1016.24
280.15 K, x1 = 0.03815 | 1019.66
280.15 K, x1 = 0.04471 | 1023.02
280.15 K, x1 = 0.05126 | 1026.26
280.15 K, x1 = 0.06722 | 1033.52
280.15 K, x1 = 0.08246 | 1040.01
280.15 K, x1 = 0.09755 | 1045.78
281.15 K, x1 = 0.000898 | 1000.29
281.15 K, x1 = 0.0018 | 1000.73
281.15 K, x1 = 0.00448 | 1002.06
281.15 K, x1 = 0.00893 | 1004.34
281.15 K, x1 = 0.01771 | 1008.91
281.15 K, x1 = 0.02461 | 1012.56
281.15 K, x1 = 0.03141 | 1016
281.15 K, x1 = 0.03815 | 1019.47
281.15 K, x1 = 0.04471 | 1022.79
281.15 K, x1 = 0.05126 | 1025.97
281.15 K, x1 = 0.06722 | 1033.21
281.15 K, x1 = 0.08246 | 1039.61
281.15 K, x1 = 0.09755 | 1045.39
282.15 K, x1 = 0.000898 | 1000.22
282.15 K, x1 = 0.0018 | 1000.65
282.15 K, x1 = 0.00448 | 1001.98
282.15 K, x1 = 0.00893 | 1004.22
282.15 K, x1 = 0.01771 | 1008.75
282.15 K, x1 = 0.02461 | 1012.36
282.15 K, x1 = 0.03141 | 1015.77
282.15 K, x1 = 0.03815 | 1019.19
282.15 K, x1 = 0.04471 | 1022.47
282.15 K, x1 = 0.05126 | 1025.61
282.15 K, x1 = 0.06722 | 1032.76
282.15 K, x1 = 0.08246 | 1039.05
282.15 K, x1 = 0.09755 | 1044.75
283.15 K, x1 = 0.000898 | 1000.13
283.15 K, x1 = 0.0018 | 1000.57
283.15 K, x1 = 0.00448 | 1001.88
283.15 K, x1 = 0.00893 | 1004.12
283.15 K, x1 = 0.01771 | 1008.6
283.15 K, x1 = 0.02461 | 1012.17
283.15 K, x1 = 0.03141 | 1015.58
283.15 K, x1 = 0.03815 | 1019.01
283.15 K, x1 = 0.04471 | 1022.23
283.15 K, x1 = 0.05126 | 1025.27
283.15 K, x1 = 0.06722 | 1032.44
283.15 K, x1 = 0.08246 | 1038.58
283.15 K, x1 = 0.09755 | 1044.35
288.15 K, x1 = 0.000898 | 999.526
288.15 K, x1 = 0.0018 | 999.93
288.15 K, x1 = 0.00448 | 1001.23
288.15 K, x1 = 0.00893 | 1003.35
288.15 K, x1 = 0.01771 | 1007.67
288.15 K, x1 = 0.02461 | 1011.04
288.15 K, x1 = 0.03141 | 1014.35
288.15 K, x1 = 0.03815 | 1017.55
288.15 K, x1 = 0.04471 | 1020.59
288.15 K, x1 = 0.05126 | 1023.54
288.15 K, x1 = 0.06722 | 1030.34
288.15 K, x1 = 0.08246 | 1036.44
288.15 K, x1 = 0.09755 | 1041.6
298.15 K, x1 = 0.000898 | 997.452
298.15 K, x1 = 0.0018 | 997.853
298.15 K, x1 = 0.00448 | 999.058
298.15 K, x1 = 0.00893 | 1001.08
298.15 K, x1 = 0.01771 | 1005.1
298.15 K, x1 = 0.02461 | 1008.24
298.15 K, x1 = 0.03141 | 1011.28
298.15 K, x1 = 0.03815 | 1014.24
298.15 K, x1 = 0.04471 | 1017.04
298.15 K, x1 = 0.05126 | 1019.75
298.15 K, x1 = 0.06722 | 1025.98
298.15 K, x1 = 0.08246 | 1031.41
298.15 K, x1 = 0.09755 | 1036.31
308.15 K, x1 = 0.000898 | 994.42
308.15 K, x1 = 0.0018 | 994.802
308.15 K, x1 = 0.00448 | 995.947
308.15 K, x1 = 0.00893 | 997.861
308.15 K, x1 = 0.01771 | 1001.7
308.15 K, x1 = 0.02461 | 1004.63
308.15 K, x1 = 0.03141 | 1007.43
308.15 K, x1 = 0.03815 | 1010.16
308.15 K, x1 = 0.04471 | 1012.76
308.15 K, x1 = 0.05126 | 1015.27
308.15 K, x1 = 0.06722 | 1021.16
308.15 K, x1 = 0.08246 | 1026.06
308.15 K, x1 = 0.09755 | 1030.33
